Values after ≈ are worked out from the molar mass of the structure shown.
Experiments:
CYP2B6 = CYP2B6 (Homo sapiens (Human), UniProt P20813); assay: in vitro; settings: microsomes
CYP1A2 = CYP1A2 (Homo sapiens (Human), UniProt P05177); assay: in vitro; settings: microsomes
CYP2D6 = CYP2D6 (Homo sapiens (Human), UniProt P10635); assay: in vitro; settings: microsomes
physchem = settings: 25 °C, kinetic from dmso stock
CYP3A4 = assay: in vitro; settings: human, microsomes
CYP2C9 = CYP2C9 (Homo sapiens (Human), UniProt P11712); assay: in vitro; settings: microsomes
in vivo [1] = settings: male, CD1, mouse; for Cmax / bioavailability: po, 30 mg/kg
in vivo [2] = settings: male, SD, rat; for bioavailability / Cmax: po, 30 mg/kg
[3] = male, SD, in vivo

CYP2B6, sequence (P20813 whole entry): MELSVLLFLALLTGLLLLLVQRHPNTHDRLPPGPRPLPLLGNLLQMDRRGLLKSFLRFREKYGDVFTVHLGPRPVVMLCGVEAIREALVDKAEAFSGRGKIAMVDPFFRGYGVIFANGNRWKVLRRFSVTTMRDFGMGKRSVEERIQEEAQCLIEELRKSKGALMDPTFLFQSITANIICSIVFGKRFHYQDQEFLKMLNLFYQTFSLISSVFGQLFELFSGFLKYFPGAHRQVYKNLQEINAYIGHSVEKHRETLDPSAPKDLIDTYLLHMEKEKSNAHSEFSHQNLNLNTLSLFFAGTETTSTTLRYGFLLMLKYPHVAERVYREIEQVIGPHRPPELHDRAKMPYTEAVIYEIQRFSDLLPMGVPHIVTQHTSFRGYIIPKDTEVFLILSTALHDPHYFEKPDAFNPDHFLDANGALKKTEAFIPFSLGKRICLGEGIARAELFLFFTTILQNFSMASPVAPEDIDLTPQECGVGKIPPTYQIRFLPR
CYP1A2, sequence (P05177 whole entry): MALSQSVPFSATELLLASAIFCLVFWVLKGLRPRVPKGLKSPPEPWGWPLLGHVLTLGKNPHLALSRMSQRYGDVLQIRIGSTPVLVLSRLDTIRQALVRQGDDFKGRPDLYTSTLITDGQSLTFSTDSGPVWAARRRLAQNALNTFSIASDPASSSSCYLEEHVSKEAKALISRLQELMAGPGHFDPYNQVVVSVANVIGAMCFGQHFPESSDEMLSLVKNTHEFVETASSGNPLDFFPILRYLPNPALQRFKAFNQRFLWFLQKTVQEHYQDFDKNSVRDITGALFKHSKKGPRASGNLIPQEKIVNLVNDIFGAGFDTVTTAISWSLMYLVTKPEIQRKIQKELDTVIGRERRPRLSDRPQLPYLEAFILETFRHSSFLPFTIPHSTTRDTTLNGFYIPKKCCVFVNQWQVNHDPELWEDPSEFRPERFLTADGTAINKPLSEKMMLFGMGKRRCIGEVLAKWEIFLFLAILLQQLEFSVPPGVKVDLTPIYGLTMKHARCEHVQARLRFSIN
CYP2C9, sequence (P11712 whole entry): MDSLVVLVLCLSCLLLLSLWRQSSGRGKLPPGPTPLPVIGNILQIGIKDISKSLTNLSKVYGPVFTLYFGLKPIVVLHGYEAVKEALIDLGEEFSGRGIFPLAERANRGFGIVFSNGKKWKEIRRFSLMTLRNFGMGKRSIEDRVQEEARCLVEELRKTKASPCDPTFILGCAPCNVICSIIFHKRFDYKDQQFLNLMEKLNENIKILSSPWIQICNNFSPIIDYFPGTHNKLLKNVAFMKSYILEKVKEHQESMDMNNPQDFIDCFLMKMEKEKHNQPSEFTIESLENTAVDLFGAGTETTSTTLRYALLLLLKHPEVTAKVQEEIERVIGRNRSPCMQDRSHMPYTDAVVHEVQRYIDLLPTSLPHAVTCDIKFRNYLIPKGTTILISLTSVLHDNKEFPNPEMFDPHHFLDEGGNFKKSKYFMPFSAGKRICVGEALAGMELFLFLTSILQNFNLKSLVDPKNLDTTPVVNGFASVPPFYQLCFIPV
CYP2D6, sequence (P10635 whole entry): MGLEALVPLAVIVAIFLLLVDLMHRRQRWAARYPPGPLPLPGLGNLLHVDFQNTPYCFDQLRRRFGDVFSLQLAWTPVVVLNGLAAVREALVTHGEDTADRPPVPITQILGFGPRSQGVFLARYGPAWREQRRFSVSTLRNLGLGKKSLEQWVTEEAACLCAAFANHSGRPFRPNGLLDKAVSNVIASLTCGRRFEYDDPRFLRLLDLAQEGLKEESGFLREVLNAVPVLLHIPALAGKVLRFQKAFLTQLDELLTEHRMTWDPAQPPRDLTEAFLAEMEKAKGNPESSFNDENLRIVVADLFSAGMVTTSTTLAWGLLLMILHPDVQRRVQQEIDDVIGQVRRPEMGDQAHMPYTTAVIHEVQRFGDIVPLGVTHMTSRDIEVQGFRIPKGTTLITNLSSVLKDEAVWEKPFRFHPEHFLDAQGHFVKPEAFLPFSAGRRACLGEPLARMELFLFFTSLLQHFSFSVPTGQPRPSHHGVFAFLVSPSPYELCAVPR

Row | SMILES | inhibition at 20 min, 10 µM (CYP2B6) | inhibition at 20 min, 10 µM (CYP1A2) | inhibition at 20 min, 10 µM (CYP2D6) | solubility at 2 h (physchem; pH 5, fessif) | solubility at 2 h (physchem; pH 7.4, aqueous buffer) | inhibition at 5 min, 10 µM (CYP3A4) | inhibition at 10 min, 10 µM (CYP3A4) | inhibition at 20 min, 10 µM (CYP2C9) | Cmax (in vivo [1]) | bioavailability (in vivo [1]) | hERG/IC50 (hERG / SGK1 (whole cell)) | half-life (in vivo [1]) | half-life (in vivo [2]) | bioavailability (in vivo [2]) | Cmax (in vivo [2]; Cmax (ng/ml)) | Cmax (in vivo [2]; pK Data in Rat: Cmax) | pK Data in Rat: F [3]
1 | Cc1n[nH]c2nc(-c3ccc(NS(=O)(=O)N4CCCC4)cc3)nc(OC3CCN(C(C)C)CC3)c12 [Compound 2, N-(4-(4-((1-isopropylpiperidin-4-yl)oxy)-3-methyl-1H-pyrazolo[3,4-d]pyrimidin-6-yl)phenyl)pyrrolidine-1-sulfonamide] | -5% | 5.9% | 7.3% | 291 µM (≈ 145 µg/mL) | 59.1 µM (≈ 29.5 µg/mL) | 7% | 13% | 13% |  |  |  |  |  |  |  |  | 
2 | COc1ccncc1S(=O)(=O)Nc1ccc(-c2nc(NCCN(C)C)c3c(C)n[nH]c3n2)cc1 [Compound 19, N-(4-(4-(2-(dimethylamino)ethylamino)-3-methyl-1H-pyrazolo[3,4-d]pyrimidin-6-yl)phenyl)-4-methoxypyridine-3-sulfonamide] |  |  |  | 297 µM (≈ 143 µg/mL) | 37 µM (≈ 17.9 µg/mL) |  |  |  | 9.3 ng/mL | 0.31% | 1.5 |  |  |  |  |  | 
3 | Cc1n[nH]c2nc(-c3ccc(NS(=O)(=O)c4cc(Cl)ccc4F)cc3)nc(NCCN(C)CCO)c12 [Compound 22, 5-chloro-2-fluoro-N-[4-[4-([2-[(2-hydroxyethyl)(methyl)amino]ethyl]amino)-3-methyl-1H-pyrazolo[3,4-d]pyrimidin-6-yl]phenyl]benzenesulfonamide] |  |  |  | 289 µM (≈ 154 µg/mL) | 8.37 µM (≈ 4.47 µg/mL) |  |  |  | 37.9 ng/mL | 2.5% | 201 | 2.3 h | 5.14 h | 2.79% | 41.9 ng/mL | 42 ng/mL | Cmax = 42 ng/mL F = 2.8%
4 | Cc1n[nH]c2nc(-c3ccc(NS(=O)(=O)c4cccnc4)cc3)nc(NCCN(C)C)c12 [Compound 23, N-[4-(4-[[2-(dimethylamino)ethyl]amino]-3-methyl-1H-pyrazolo[3,4-d]pyrimidin-6-yl)phenyl]pyridine-3-sulfonamide] |  |  |  | 274 µM (≈ 124 µg/mL) | 13.7 µM (≈ 6.2 µg/mL) |  |  |  |  |  | 4.1 |  |  |  |  |  | 
5 | Cc1n[nH]c2nc(-c3ccc(NS(=O)(=O)c4ccccn4)cc3)nc(NCCN(C)C)c12 [Compound 24, N-[4-(4-[[2-(dimethylamino)ethyl]amino]-3-methyl-1H-pyrazolo[3,4-d]pyrimidin-6-yl)phenyl]pyridine-2-sulfonamide] |  |  |  | 300 µM (≈ 136 µg/mL) | 278 µM (≈ 126 µg/mL) |  |  |  | 45.1 ng/mL | 1.55% | 20.7 | 2.3 h |  |  |  |  | 
6 | COc1ccnc(S(=O)(=O)Nc2ccc(-c3nc(NCCN(C)C)c4c(C)n[nH]c4n3)cc2)c1 [Compound 27, N-(4-(4-((2-(dimethylamino)ethyl)amino)-3-methyl-1H-pyrazolo[3,4-d]pyrimidin-6-yl)phenyl)-4-methoxypyridine-2-sulfonamide] |  |  |  | 256 µM (≈ 124 µg/mL) | 36.5 µM (≈ 17.6 µg/mL) |  |  |  | 40.3 ng/mL |  | 341 | 2.7 h |  |  |  |  | 
7 | Cc1n[nH]c2nc(-c3ccc(NS(=O)(=O)c4cc(Cl)ccc4F)c(F)c3)nc(OC3CCN(C(C)C)CC3)c12 [Compound 28] |  |  |  | 293 µM (≈ 169 µg/mL) | 1.7 µM (≈ 0.981 µg/mL) |  |  |  | 4020 ng/mL | 51% |  | 3.4 h |  |  |  | 4020 ng/mL | Cmax = 4017 ng/mL F = 51%
8 | Cc1n[nH]c2nc(-c3ccc(NS(=O)(=O)c4cc(Cl)ccc4F)cc3)nc(O[C@@H]3CCNC[C@@H]3F)c12 [Compound 29, 5-chloro-2-fluoro-N-(4-(4-(((3S,4R)-3-fluoropiperidin-4-yl)oxy)-3-methyl-1H-pyrazolo[3,4-d]pyrimidin-6-yl)phenyl)benzenesulfonamide] | 26% | 8.8% | 26% | 245 µM (≈ 131 µg/mL) | 3 µM (≈ 1.6 µg/mL) | 54% | 77% | 75% | 115 ng/mL | 8% | 2476 | 1.04 h | 9.7 h | 0.45% | 16 ng/mL |  | 
9 | Cc1n[nH]c2nc(-c3ccc(NS(=O)(=O)c4cc(Cl)ccc4F)cc3)nc(O[C@@H]3CCNCC3(F)F)c12 [Compound 44, (R)-5-chloro-N-(4-(4-((3,3-difluoropiperidin-4-yl)oxy)-3-methyl-1H-pyrazolo[3,4-d]pyrimidin-6-yl)phenyl)-2-fluorobenzenesulfonamide] | 39% | 11% | 44% |  |  | 93% | 91% | 92% |  |  |  |  |  |  |  |  | 
10 | Cc1n[nH]c2nc(-c3ccc(NS(=O)(=O)c4cc(F)ccc4F)cc3)nc(NCCN(C)C)c12 [Compound 45, N-(4-(4-((2-(dimethylamino)ethyl)amino)-3-methyl-1H-pyrazolo[3,4-d]pyrimidin-6-yl)phenyl)-2,5-difluorobenzenesulfonamide] |  |  |  | 277 µM (≈ 135 µg/mL) | 7.98 µM (≈ 3.89 µg/mL) |  |  |  |  |  |  |  | 3.63 h | 4.68% | 131 ng/mL | 131 ng/mL | Cmax = 131 ng/mL F = 4.7%
11 | Cc1n[nH]c2nc(-c3ccc(NS(=O)(=O)c4cc(C(F)(F)F)ccn4)cc3)nc(O[C@@H]3CCN(C)C[C@@H]3F)c12 [Compound 63, N-[4-(4-{[(3S,4R)-3-fluoro-1-methylpiperidin-4-yl]oxy}-3-methyl-1H-pyrazolo[3,4-d]pyrimidin-6-yl)phenyl]-4-(trifluoromethyl)pyridine-2-sulfonamide] | 12% | 2.4% | 7.5% | 205 µM (≈ 116 µg/mL) | 1.9 µM (≈ 1.07 µg/mL) | -24% | -2% | 65% | 1120 ng/mL |  |  | 12 h |  |  |  |  | 
12 | Cc1n[nH]c2nc(-c3ccc(NS(=O)(=O)c4cc(Cl)ccc4F)c(F)c3)nc(NCCN(C)CCO)c12 [Compound 78, 5-chloro-2-fluoro-N-{2-fluoro-4-[4-({2-[(2-hydroxyethyl)(methyl)amino]ethyl}amino)-3-methyl-1H-pyrazolo[3,4-d]pyrimidin-6-yl]phenyl}benzenesulfonamide] |  |  |  | 275 µM (≈ 152 µg/mL) | 16 µM (≈ 8.83 µg/mL) |  |  |  | 111 ng/mL | 4.9% |  | 2.5 h |  |  |  | 69 ng/mL | Cmax = 69 ng/mL F = 4.9%
13 | Cc1n[nH]c2nc(-c3ccc(NS(=O)(=O)c4cc(Cl)ccc4F)c(Cl)c3)nc(NCCN(C)CCO)c12 [Compound 99, 5-chloro-N-{2-chloro-4-[4-({2-[(2-hydroxyethyl)(methyl)amino]ethyl}amino)-3-methyl-1H-pyrazolo[3,4-d]pyrimidin-6-yl]phenyl}-2-fluorobenzenesulfonamide] |  |  |  |  |  |  |  |  |  |  | 91 |  | 10 h | 5.6% | 141 ng/mL | 141 ng/mL | Cmax = 141 ng/mL F = 5.6%
14 | Cc1nc2c([nH]1)c(=O)n(C)c(=O)n2Cc1ccco1 [Furafylline] |  | 78% |  |  |  |  |  |  |  |  |  |  |  |  |  |  | 

From US20240309005A1 (priority 2021, published 2024)
